Experimental findings from ChEMBL document CHEMBL4052729, “Discovery of novel dengue virus entry inhibitors via a structure-based approach” (Bioorg Med Chem Lett, 2017) are described below.

pEC50: −log10 of the molar value. In brackets after ≈: the same amount, converted by molar mass.

What is called pEC50 is −log10 of the EC50, conventionally taken in molar units. A high value points to a small EC50. Broadly, the CC50 is the concentration that lowers cell viability or growth by half. Low values mean harm at low concentration, high ones better tolerance by the cells. A word on the thermodynamic solubility: it is the concentration in solution at equilibrium with solid.

The subject of data set [1] is dengue virus type 2. The data set can be described thus: Antiviral activity against DENV2 infected in human A549 or golden hamster BHK21 cells preincubated with viral inoculum for 30 mins followed by viral inoculum removal after 1 hr and subsequently incubated with fresh medium containing compound and measured 8 hrs post-infection by luciferase reporter gene assay. The data set is classed as functional, cell-based. (In general: Reporter assays use an easily measured gene product as a stand-in for the process of interest.)

The subject of data set [2] is Bovine viral diarrhea virus 1. In words: Antiviral activity against BVDV. The note with it: Bovine viral diarrhea virus isolates and strains. The format is functional.
Data set [3] can be described thus: Cytotoxicity against human A549 cells by MTT assay. The data set is classed as cell-based. A general note: Tetrazolium dyes change colour on reduction, which living cells bring about.
A short description of data set [4]: Cytotoxicity against golden hamster BHK21 cells by MTT assay. The data set is classed as cell-based, Mesocricetus auratus, BHK-21.
Data set [5] can be described thus: Selectivity index, ratio of CC50 for human A549 cells to EC50 for DENV2.
A short description of data set [6]: Selectivity index, ratio of CC50 for golden hamster BHK21 cells to EC50 for DENV2.
Data set [7] in a line: Aqueous solubility of the compound in buffer at pH 2.0 after 48 hrs UV spectroscopy based shake flask method. The format is physicochemical.
The nature of data set [8]: Aqueous solubility of the compound in buffer at pH 6.4 after 48 hrs UV spectroscopy based shake flask method. The format is physicochemical.
Data set [9] in a line: Aqueous solubility of the compound in buffer at pH 7.4 after 48 hrs UV spectroscopy based shake flask method. The format is physicochemical.
Data set [10] in a line: Stability of the compound in pH 7.4 PBS buffer after 24 to 48 hrs by chromatographic method. The data set is classed as physicochemical.

Consider `O=C(Nc1ccccc1OCc1ccc(Cl)c(Cl)c1)c1ccco1`, for which the pEC50 in data set [1] is 4.64; in data set [2], under 4.30. Besides, the CC50 in data set [3] and in data set [4] was over 100 µM each time. Moreover, the “Ratio CC50/EC50” value in data set [5] and in [6] was over 5 each time.
In the case of `O=C(NC(=S)N1CCc2ccccc21)c1ccc(C#Cc2ccccc2)nc1`, the pEC50 in [1] was 4.54; in data set [2], under 4.30. The CC50 in [3] and in data set [4] was over 100 µM each time. Besides, the “Ratio CC50/EC50” value in data set [5] and in data set [6] was over 4 in each case.
Consider `O=C(CSCC(=O)Nc1ccc(OC(F)(F)F)cc1)NNC(=S)Nc1ccccc1`, for which the figures for the thermodynamic solubility at 48 h in data set [7], in data set [8] and in data set [9] were 8.2 µg/mL (≈ 17.9 µM), 13.1 µg/mL (≈ 28.6 µM) and 1.2 µg/mL (≈ 2.62 µM), respectively. In data set [10], this compound displayed a Stability of over 48 h. The negative-log EC50 (pEC50) is 5.29 in data set [1] and under 4.30 in [2]. Further, the CC50 in data set [3] and in [4] was over 100 µM in each case. In addition, the “Ratio CC50/EC50” value in data set [5] and in data set [6] was over 20 throughout.
On to `O=C(Nc1ccc(Oc2ncnc3cc(Cl)ccc23)nc1)c1ccc(-c2ccccn2)s1`, for which the thermodynamic solubility at 48 h in data set [7] was found to be 12.7 µg/mL (≈ 27.6 µM); in data set [8], 10.1 µg/mL (≈ 22 µM); in [9] it was 2.9 µg/mL (≈ 6.31 µM). The compound further had a Stability in data set [10] of over 48 h. Besides, the negative logarithm of the EC50 (pEC50) is 5.51 in data set [1] and under 4.30 in data set [2]. In addition, the 50% cytotoxic concentration (CC50) in data set [3] and in data set [4] was over 100 µM in each case. The “Ratio CC50/EC50” value in [5] and in data set [6] was over 32 in each case.
Regarding `O=C1Nc2ccc(Cl)cc2[C@@](C#CC2CC2)(C(F)(F)F)O1` [EFAVIRENZ], the solubility (thermodynamic) at 48 h in [8] amounted to 68.3 µg/mL (≈ 216 µM).
On the same count and under the same terms, the same measure for `CN1C(C(=O)Nc2ccccn2)=C(O)c2ccccc2S1(=O)=O` [PIROXICAM]: 7.3 µg/mL (≈ 22 µM).
